Laboratory results: paper PMC4994268, “4-aroylpiperidines and 4-(α-hydroxyphenyl)piperidines as selective sigma-1 receptor ligands: synthesis, preliminary pharmacological evaluation and computational studies” (Chemistry Central Journal, 2016)
Where a name gives a salt, the structure may show the parent alone.

Key:
σ2 receptor = molecular target: T1, σ2 receptor (Rattus norvegicus, UniProt Q5U3Y7); experiment: Sigma receptor binding, σ2 sites, [3H]DTG competition with σ1 sites masked by (+)-pentazocine, rat liver membrane homogenates; settings: HCl salts tested
T1 construct: Rat liver membrane homogenates (~300 μg protein) were diluted with 50 mM Tris–HCl buffer; from tissue; host or cells: rat liver membrane homogenates
T1 sequence (Q5U3Y7 1-176): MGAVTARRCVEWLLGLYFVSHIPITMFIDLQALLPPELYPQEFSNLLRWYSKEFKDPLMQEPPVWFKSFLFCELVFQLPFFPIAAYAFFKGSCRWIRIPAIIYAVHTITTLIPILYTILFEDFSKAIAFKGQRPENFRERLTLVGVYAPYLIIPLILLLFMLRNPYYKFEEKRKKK
Protocol: (§1) These experiments were performed as described by Jinbin et al. with some modification. Different concentrations of test samples were achieved by diluting stock solutions with a solution containing 50 mM Tris–HCl, 150 mM NaCl and 100 mM EDTA at pH 7.4. Rat liver membrane homogenates (~300 μg protein) were diluted with 50 mM Tris–HCl buffer, pH 8.0 and incubated in a total volume of 150 μL with the radioligand at 25 °C in 96 well plates. The incubation time was 60 min for test compounds and 120 min for [^3H] DTG and [^3H] (+)-pentazocine.
It is worth mentioning that, this was done one at a time. The final concentration of the radioligand in each assay was ~1 nM for [^3H] test compounds and ~5 nM for [^3H] […]

σ1 receptor [1] = experiment: Sigma receptor binding, σ1 sites, [3H](+)-pentazocine competition in rat liver membrane homogenates; settings: ratio of Ki σ2 to Ki σ1
Protocol: as §1
(§2) It is worth mentioning that, this was done one at a time. The final concentration of the radioligand in each assay was ~1 nM for [^3H] test compounds and ~5 nM for [^3H]
(§3) The reaction was started by adding 0.2 mL of the membrane preparation to the 50 mM Tris–HCl (pH 8.0) buffer containing ^3H-labeled ligand with a final concentration of 5 nM and cold ligand ranging from 0.01 to 0.1 mM in a final volume of 1.0 mL. Incubations were carried out at […] in the binding study with [^3H] […] DTG. Inhibitor concentrations ranging from 0.1 nM to 10 μM were added to acquire the inhibition curves. After the reaction was completed, the samples were harvested, washed three times, and the bound radioactivity counted and analyzed.

σ1 receptor [2] = molecular target: T2, σ1 receptor (Rattus norvegicus, UniProt Q9R0C9); experiment: as above; settings: for Ki: HCl salts tested, rat liver membrane homogenates
T2 construct: Rat liver membrane homogenates (~300 μg protein) were diluted with 50 mM Tris–HCl buffer; from tissue; host or cells: rat liver membrane homogenates
T2 sequence (Q9R0C9 whole entry): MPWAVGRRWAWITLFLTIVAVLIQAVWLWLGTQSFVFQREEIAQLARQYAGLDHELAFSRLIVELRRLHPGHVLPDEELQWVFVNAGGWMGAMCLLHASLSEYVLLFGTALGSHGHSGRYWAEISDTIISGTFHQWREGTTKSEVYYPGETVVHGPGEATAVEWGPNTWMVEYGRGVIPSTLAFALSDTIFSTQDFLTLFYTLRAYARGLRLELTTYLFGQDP
Protocol: as §1, §2, §3

σ1 receptor [3] = settings: reference ligands in Table 1; cited from earlier work

| Compound | melting point [°C] | Ki (σ2 receptor) [nM] | Selectivity ratio (Ki σ2/σ1) (σ1 receptor [1]) | Ki (σ1 receptor [2]) [nM] | decrease in σ1 binding affinity on reduction of the carbonyl to the corresponding alcohol (σ1 receptor [2]; alcohol 8 versus ketone 7) | increase in σ1 receptor affinity on reduction of the carbonyl compound to the corresponding alcohol (σ1 receptor [2]; alcohol 8 versus ketone 7) | Ki (σ1 receptor [3]) [nM] |
| --- | --- | --- | --- | --- | --- | --- | --- |
| Cc1ccc(CN2CCC(C(=O)c3ccc(F)cc3)CC2)cc1 (as salt: HCl) [Compound 7f, 4-(4-fluorobenzoyl)-1-[(4-methylphenyl)methyl]piperidine] | 108 to 110 |  |  |  |  |  |  |
| O=C(c1ccc(F)cc1)C1CCN(Cc2ccc(Br)cc2)CC1 [Compound 7e, 1-[(4-bromophenyl)methyl]-4-(4-fluorobenzoyl)piperidine] |  | > 854 | > 610 | 1.4 ± 0.5 |  |  |  |
| O=C(c1ccc(F)cc1)C1CCN(Cc2ccc(F)cc2)CC1 [Compound 7a, 4-(4-fluorobenzoyl)-1-[(4-fluorophenyl)methyl]piperidine] |  | 222 ± 8 | 75 | 2.96 ± 0.5 |  |  |  |
| O=C(c1ccc(F)cc1)C1CCN(Cc2ccc(Cl)cc2)CC1 [Compound 7c, 1-[(4-chlorophenyl)methyl]-4-(4-fluorobenzoyl)piperidine] |  | 554 ± 34.2 | 93 | 5.98 ± 0.41 |  |  |  |
| O=C(c1ccc(F)cc1)C1CCN(Cc2ccc(Cl)c(Cl)c2)CC1 [Compound 7b, 1-[(3,4-dichlorophenyl)methyl]-4-(4-fluorobenzoyl)piperidine] |  | > 854 |  | > 434 |  |  |  |
| Cc1ccc(CN2CCC(C(=O)c3ccc(F)cc3)CC2)cc1 [Compound 7f, 4-(4-fluorobenzoyl)-1-[(4-methylphenyl)methyl]piperidine] |  | 151 ± 7.79 | 13 | 11.6 ± 0.26 |  |  |  |
| O=C(c1ccc(F)cc1)C1CCN(Cc2ccccc2[N+](=O)[O-])CC1 [Compound 7d, 4-(4-fluorobenzoyl)-1-[(2-nitrophenyl)methyl]piperidine] |  | > 854 |  | > 434 |  |  |  |
| c1ccc(CN2CCC3(CCc4ccccc4S3)CC2)cc1 [Spipethiane, 1′-Benzyl-3,4-dihydrospiro[2H-1-benzothiopyran-2,4′-piperidine]] |  |  |  |  |  |  | 0.5 |
| O=C(c1ccc(F)cc1)C1CCN(Cc2ccccc2[N+](=O)[O-])CC1 (as salt: HCl) [Compound 7d, 4-(4-fluorobenzoyl)-1-[(2-nitrophenyl)methyl]piperidine] | 95 to 97 |  |  |  |  |  |  |

Further lines, with some results ahead:

| melting point [°C] | Ki (σ2 receptor) [nM] | Selectivity ratio (Ki σ2/σ1) (σ1 receptor [1]) | Ki (σ1 receptor [2]) [nM] | decrease in σ1 binding affinity on reduction of the carbonyl to the corresponding alcohol (σ1 receptor [2]; alcohol 8 versus ketone 7) | increase in σ1 receptor affinity on reduction of the carbonyl compound to the corresponding alcohol (σ1 receptor [2]; alcohol 8 versus ketone 7) | Compound | Ki (σ1 receptor [3]) [nM] |
| --- | --- | --- | --- | --- | --- | --- | --- |
|  | > 854 | > 164 | 5.22 ± 0.3 | fivefold |  | OC(c1ccc(F)cc1)C1CCN(Cc2ccc(Br)cc2)CC1 (stereo not drawn) [Compound 8e, {1-[(4-bromophenyl)methyl]piperidin-4-yl}(4-fluorophenyl)methanol] |  |
|  | > 854 | 2 | 527 ± 69 |  |  | O=[N+]([O-])c1ccccc1CN1CCC(C(O)c2ccc(F)cc2)CC1 (stereo not drawn) [Compound 8d, (4-fluorophenyl)({1-[(2-nitrophenyl)methyl]piperidin-4-yl})methanol] |  |
|  | > 854 | > 606 | 1.41 ± 0.22 |  | twofold | OC(c1ccc(F)cc1)C1CCN(Cc2ccc(F)cc2)CC1 (stereo not drawn) [Compound 8a, (4-fluorophenyl)({1-[(4-fluorophenyl)methyl]piperidin-4-yl})methanol] |  |
|  | > 854 |  | > 434 |  |  | OC(c1ccc(F)cc1)C1CCN(Cc2ccc(Cl)c(Cl)c2)CC1 (stereo not drawn) [Compound 8b, {1-[(3,4-dichlorophenyl)methyl]piperidin-4-yl}(4-fluorophenyl)methanol] |  |
|  | > 854 | > 343 | 2.49 ± 0.24 |  | twofold | OC(c1ccc(F)cc1)C1CCN(Cc2ccc(Cl)cc2)CC1 (stereo not drawn) [Compound 8c, {1-[(4-chlorophenyl)methyl]piperidin-4-yl}(4-fluorophenyl)methanol] |  |
|  | > 854 | > 589 | 1.45 ± 0.4 |  | 11 fold | Cc1ccc(CN2CCC(C(O)c3ccc(F)cc3)CC2)cc1 (stereo not drawn) [Compound 8f, (4-fluorophenyl)({1-[(4-methylphenyl)methyl]piperidin-4-yl})methanol] |  |
|  | > 854 | > 289 | 2.95 ± 0.57 |  |  | Fc1ccc(C(NCc2cccc(Br)c2)C2CCN(Cc3ccc(Br)cc3)CC2)cc1 (stereo not drawn) [Compound 9e, [(3-bromophenyl)methyl]({1-[(4-bromophenyl)methyl]piperidin-4-yl}(4-fluorophenyl)methyl)amine] |  |
|  | > 854 |  | > 434 |  |  | O=[N+]([O-])c1ccccc1CN1CCC(C(NCc2cccc(Br)c2)c2ccc(F)cc2)CC1 (stereo not drawn) [Compound 9d, [(3-bromophenyl)methyl][(4-fluorophenyl)({1-[(2-nitrophenyl)methyl]piperidin-4-yl})methyl]amine] |  |
